Results as given in the NIST ThermoML archive (doi:10.1021/je7005924).

Settings: Liquid

CC(=O)C(C)=O [2,3-butanedione]
Settings	vapor or sublimation pressure [kPa]
314.3 K	19.06
320.55 K	24.04
325.62 K	29.03
329.85 K	33.91
333.64 K	39
336.76 K	43.59
339.99 K	48.97
342.8 K	53.85
345.41 K	58.83
347.62 K	63.83
349.9 K	68.81
351.89 K	73.79

CCC(=O)C(C)=O [2,3-pentanedione]
Settings	vapor or sublimation pressure [kPa]
331.84 K	15.37
338.38 K	20.36
343.73 K	25.35
348.13 K	30.35
352.15 K	35.34
355.74 K	40.33
358.85 K	45.32
361.89 K	50.21
364.69 K	55.21
367.09 K	60.2
369.44 K	65.19
371.61 K	70.18
373.8 K	75.27

CC(C)=O [acetone]
Settings	vapor or sublimation pressure [kPa]
297.67 K	30.23
301.25 K	35.22
307.33 K	45.21
310.08 K	50.4
312.52 K	55.29
314.76 K	60.29
316.8 K	65.08
318.77 K	70.07
